According to patent publication US20250281485A1, “DIAGNOSIS AND/OR TREATMENT OF HEART FAILURE WITH PRESERVED EJECTION FRACTION” (UNIVERSITEIT MAASTRICHT, priority 2022, published 2025):
Like-named read-outs stand apart in the source and are kept apart here.

What was measured:
apo-sGC = target: T1, apo-sGC (Homo sapiens, UniProt Q02108+Q02153); assay: pVASP/VASP concentration response in fresh P-WBC, sGC activator; format: cell-based
T1 construct: P-WBC is isolated after a 800g centrifugation and treated with sGCs or sGCa; endogenous in cells; host or cells: fresh human platelet-enriched white-blood-cell fraction (P-WBC) from healthy volunteers
T1 sequence (Q02153 1-619): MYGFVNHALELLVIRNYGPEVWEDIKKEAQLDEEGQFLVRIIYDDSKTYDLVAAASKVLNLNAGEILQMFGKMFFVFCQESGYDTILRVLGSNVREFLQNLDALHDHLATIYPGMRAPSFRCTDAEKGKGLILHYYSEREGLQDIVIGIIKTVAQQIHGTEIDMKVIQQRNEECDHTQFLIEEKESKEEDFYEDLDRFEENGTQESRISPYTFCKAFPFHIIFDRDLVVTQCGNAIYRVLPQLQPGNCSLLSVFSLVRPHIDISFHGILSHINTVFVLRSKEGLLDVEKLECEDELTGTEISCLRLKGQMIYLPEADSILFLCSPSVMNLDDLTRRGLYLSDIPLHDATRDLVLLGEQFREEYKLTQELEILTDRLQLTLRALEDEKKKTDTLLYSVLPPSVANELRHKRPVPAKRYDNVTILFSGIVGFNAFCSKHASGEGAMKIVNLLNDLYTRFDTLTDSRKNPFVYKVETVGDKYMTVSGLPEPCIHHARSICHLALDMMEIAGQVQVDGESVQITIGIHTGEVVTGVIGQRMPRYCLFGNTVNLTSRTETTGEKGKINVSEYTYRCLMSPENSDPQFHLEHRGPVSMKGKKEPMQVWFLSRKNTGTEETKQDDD
T1 sequence (Q02108 1-690): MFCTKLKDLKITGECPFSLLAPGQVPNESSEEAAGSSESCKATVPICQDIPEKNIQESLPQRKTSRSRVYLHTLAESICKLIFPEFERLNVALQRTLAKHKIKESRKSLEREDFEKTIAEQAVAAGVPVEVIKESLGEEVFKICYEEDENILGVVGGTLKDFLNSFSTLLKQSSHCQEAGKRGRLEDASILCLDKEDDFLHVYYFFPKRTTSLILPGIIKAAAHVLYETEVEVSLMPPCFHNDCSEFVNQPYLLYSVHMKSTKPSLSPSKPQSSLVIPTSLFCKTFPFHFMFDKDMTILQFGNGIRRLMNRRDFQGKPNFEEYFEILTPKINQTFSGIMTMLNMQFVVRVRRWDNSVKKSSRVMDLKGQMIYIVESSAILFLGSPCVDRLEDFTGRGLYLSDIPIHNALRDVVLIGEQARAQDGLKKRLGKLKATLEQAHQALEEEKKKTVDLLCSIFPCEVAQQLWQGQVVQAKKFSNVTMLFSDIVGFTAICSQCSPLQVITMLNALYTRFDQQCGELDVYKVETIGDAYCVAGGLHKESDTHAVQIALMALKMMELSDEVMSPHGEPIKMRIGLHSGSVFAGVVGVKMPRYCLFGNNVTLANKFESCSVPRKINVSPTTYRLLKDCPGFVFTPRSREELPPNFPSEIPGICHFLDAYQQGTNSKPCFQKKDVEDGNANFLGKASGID
Procedure: (§1) Human blood was collected from healthy volunteers after obtaining informed consent according to the Declaration of Helsinki. An ethical approval was granted by the FHML Research Ethics Committee of Maastricht University (FHML-REC/2022/055). Whole blood (WB) was collected by venipuncture in ACD-A tubes (sodium citrate: 22.0 g/L, dextrose 24.5 g/L, citric acid: 8.0 g/L). Centrifugations in various speeds (200 g, 400g, 600g, 800g) were performed for 10 minutes in 18 degrees Celsius (acceleration 1, deceleration 0). Plasma was collected and P-WBC was carefully isolated (500 μl). Cell counting was performed with the automated haematology analyzer Sysmex XP-300. Subsequently, P-WBC was diluted with the same volume of JNL-buffer (130 mM NaCl, 3 mM KCl, 9 mM NaHCO3, 0.81 mM KH2PO4, 0.9 mM MgCI2, 10 mM sodium citrate, 6 mM dextrose, 10 mM Tris base, 2 mM HEPES) pH 7.4. Thereafter, 20 μl of diluted P-WBC were further diluted 1:5 with JNL-buffer for the cell treatments. Cell suspensions were treated with BAY 41-2272 (30 μM) and BAY 58-2667 (10 μM) for 10 minutes at 37° C., and with riociguat and runcaciguat for 15 minutes; in some cases with 10 minutes pretreatment with IBMX. Samples were centrifuged for 10 minutes at 750 g. […]
(§2) All data are expressed as mean±standard error of mean (SEM) of at least three independent experiments. […]

sGC = target: T2, sGC (Homo sapiens, UniProt Q02108+Q02153); assay: pVASP/VASP concentration response in fresh P-WBC, sGC stimulator; format: cell-based
T2 construct: P-WBC is isolated after a 800g centrifugation and treated with sGCs or sGCa; endogenous in cells; host or cells: fresh human platelet-enriched white-blood-cell fraction (P-WBC) from healthy volunteers
T2 sequence (Q02153 1-619): T1 sequence (Q02153 1-619)
T2 sequence (Q02108 1-690): T1 sequence (Q02108 1-690)
Procedure: as §1, §2

HFpEF patients [1] = conditions: JAMA 2020; cited from earlier work
HFpEF patients [2] = conditions: JAMA 2020; cited from earlier work; remark: listed apart in the source
HFpEF patients [3] = conditions: JAMA 2013; cited from earlier work
[4] = in the presence of 500 μM IBMX (FIG. 14D)

C[C@H]([C@H](C(=O)Nc1cc([C@@H](CC(=O)O)C2CC2)ccc1Cl)c1ccc(Cl)cc1)C(F)(F)F [runcaciguat]
concentration at which pVASP response peaked (apo-sGC; [4]): 1 μM
concentration of maximum effect, pVASP concentration response curve (apo-sGC; without IBMX (FIG. 14B)): 100 μM

COC(=O)N(C)c1c(N)nc(-c2nn(Cc3ccccc3F)c3ncccc23)nc1N [riociguat, Methyl N-[4,6-Diamino-2-[1-[(2-fluorophenyl)methyl]-1H-pyrazolo[3,4-b]pyridin-3-yl]-5-pyrimidinyl]-N-methyl-carbaminate]
concentration at which pVASP response peaked (sGC; [4]): 100 μM
concentration of maximum effect, pVASP concentration response curve (sGC; without IBMX (FIG. 14B)): > 100 μM

COC(=O)Nc1c(N)nc(-c2nn(Cc3ccccc3F)c3ncc(F)cc23)nc1N [vericiguat, methyl N-[4,6-diamino-2-[5-fluoro-1-[(2-fluorophenyl)methyl]pyrazolo[3,4-b]pyridin-3-yl]pyrimidin-5-yl]carbamate]
trial outcome (HFpEF patients [1]): failed

OC(CNc1nc(-c2cc(-c3ccon3)n(Cc3ccccc3F)n2)ncc1F)(C(F)(F)F)C(F)(F)F [Praliciguat]
trial outcome (HFpEF patients [2]): failed

CCCc1nn(C)c2c(=O)[nH]c(-c3cc(S(=O)(=O)N4CCN(C)CC4)ccc3OCC)nc12 [sildenafil]
trial outcome (HFpEF patients [3]): failure
